Reference: US8153773B2, “Synthesis and use of anti-reverse phosphorothioate analogs of the messenger RNA cap” (Board of Supervisors of Louisiana State University and …, priority 2007, dated 2012)

What was measured:
[1] = tested on: HC11 cells; assay: Polysomal distribution of capped luciferase mRNA in HC11 cells; type: cell-based, mouse; settings: HC11 cells lysed 4 h after electroporation, sucrose gradient
Procedure: To separate ribosomal subunits and initiation complexes, 4×10^6 HC11 cells were treated for 2 min with ice-cold PBS containing 0.1 mg/ml cycloheximide, washed twice with the same medium, and lysed in 600 μl of 0.3 M NaCl, 15 mM Tris-HCl (pH 7.6), 15 mM MgCl2, 1% Triton X-100, 1 mg/ml heparin, and 0.1 mg/ml cycloheximide. After centrifugation at 14,000×g for 10 min, the supernatant was layered on a 15-45% sucrose gradient in the same buffer but lacking Triton X-100 and centrifuged in a Beckman SW41 Ti rotor at 38,000 rpm at 4° C. for 2 h. Gradients were fractionated with continuous monitoring of absorbance at 260 nm. RNA from each fraction (1 ml) was isolated and analyzed by real time PCR.
We used an independent method to validate the observation that m2^7,2′-OGppspG-capped mRNAs were translated more efficiently, namely, their polysomal distribution (FIGS. 9A-9E). An increase in the rate of initiation relative to elongation or termination results in a shift of the mRNA from lighter to heavier polysomes. See H. Lodish, “Model for the regulation of mRNA translation applied to haemoglobin synthesis,” Nature, vol. 251, pp. 385-388 (1974). The type of cap structure is not expected to affect the rate of elongation. Thus, a shift to higher polysomes indicates faster initiation.
Luc A60 mRNA capped with m^7 Gp3G, m2^7,2′-OGp3G or m2^7,2′-OGppspG (D2) was electroporated into HC11 cells. […]

[2] = tested on: rabbit reticulocyte lysate; assay: Cell-free translation of capped Luc-A60 mRNA in the rabbit reticulocyte lysate system; type: biochemical; settings: data not shown
Source text: Luc-A60 mRNA capped with m2^7,2′-OGppspG (D1) and m2^7,2′-OGppspG (D2) was translated 2.8- and 5.1-fold more efficiently than m^7Gp3G-capped mRNA, respectively (FIG. 8 and Table 2). For cell-free translation in the rabbit reticulocyte lysate system, Luc-A60 mRNAs capped with m2^7,2′-OGppspG (D1) and m2^7,2′-OGppspG (D2) were translated only 2.3-fold more efficiently than Luc-A60 mRNA capped with m^7Gp3G (data not shown).

[3] = tested on: HC11 cells; assay: Time course of luciferase expression after nucleoporation of HC11 cells; type: cell-based, mouse; settings: luciferase activity up to 10 h after nucleoporation, normalized for Luc-A60 delivered
Procedure: Two methods, electroporation and nucleoporation, were used to deliver RNA into cells. In case of electroporation, 5 μg of RNA were introduced into 10^7 HC11 cells in a total volume 400 μl of serum-reduced RPMI 1640 medium in a Gene pulser cuvette (4 mm gap) with a Bio-Rad Genepulser™ set at 0.22 kV and 960 μF. Following discharge, the cells were washed twice with PBS, centrifuged for 2 min 300×g at room temperature, resuspended in prewarmed complete medium, and placed at 37° C. Nucleoporation was performed with an Amaxa Nucleofector II (Amaxa Biosystems) in accordance with manufacture's recommendations. One microgram of RNA was introduced into 10^6 HC11 cells with Nucleofector Solution V and the set of recommended regimens (program T-024).
For cytoplasmic RNA extraction, 2×10^5 cells were lysed in 175 μl of lysis buffer (50 mM Tris-HCl, pH 8.0, 140 mM NaCl, 1.5 mM MgCl2, 0.5% (v/v) Igepal (Sigma), and 1 mM dithiothreitol). […] Luciferase activity of cell extracts was measured according to the manufacturer's protocol (Promega).
We also determined the overall accumulation of luciferase, as measured by its enzymatic activity, as a function of time for mRNAs capped with m2^7,2′-OGp3G, m2^7,2′-OGppspG (D1), and m2^7,2′-OGppspG (D2). […] Luciferase activity measured in the supernatant was normalized for the amount of Luc-A60 delivered into the cells. […]

Row | Compound | polysomal distribution of capped Luc A60 mRNA [1] | translational efficiency relative to m^7Gp3G-capped Luc-A60 mRNA [2] [fold] | overall accumulation of luciferase [3]
1 | CO[C@@H]1[C@H](O)[C@@H](COP(=O)(O)OP(=O)([O-])OP(=O)(O)OC[C@H]2O[C@@H](n3cnc4c(=O)[nH]c(N)nc43)[C@H](O)[C@@H]2O)O[C@H]1n1c[n+](C)c2c(O)nc(N)nc21 [m2^7,2′-OGpppG, reference compound] | shifted to higher polysomes |  | 
2 | m2^7,2′-OGppspG (D1) [Compound 5a] |  | 2.3 | 
3 | m2^7,2′-OGppspG (D2) [Compound 5b] | shifted to even higher polysomes | 2.3 | The most luciferase accumulated
